Measurements published in US20250099420A1, “SMALL MOLECULE MODULATORS OF GPR139 COMPLEX” (University of Florida Research Foundation, Incorporated, priority 2022, published 2025).
Where two headings read alike, the source gives them in different places.

How the values were obtained:
[1] = tested on: parental HEK cells; assay: HEK parental Agonist Counterscreen Assay (non-transfected cells); assay type: cell-based; conditions: for Averaged Max % Response (±St. Dev.): activity relative to known control
Description: The high control for the agonist counterscreen was Forskolin not acetylcholine.

[2] = molecular target: T1, GPR139 (Homo sapiens, UniProt Q6DWJ6); assay: GPR139 Agonist titration / agonist counterscreen assay (calcium detection, HEK-GPR139 cells); assay type: cell-based; parameters: expressed in transfected cells; host or cells: HEK Aequorin cells, Maxcyte transient transfection; conditions: GPR139 Agonist Activity; for EC50: read-out: EC50; for Averaged Max % Response (±St. Dev.): activity relative to known control
T1 sequence (Q6DWJ6 1-353): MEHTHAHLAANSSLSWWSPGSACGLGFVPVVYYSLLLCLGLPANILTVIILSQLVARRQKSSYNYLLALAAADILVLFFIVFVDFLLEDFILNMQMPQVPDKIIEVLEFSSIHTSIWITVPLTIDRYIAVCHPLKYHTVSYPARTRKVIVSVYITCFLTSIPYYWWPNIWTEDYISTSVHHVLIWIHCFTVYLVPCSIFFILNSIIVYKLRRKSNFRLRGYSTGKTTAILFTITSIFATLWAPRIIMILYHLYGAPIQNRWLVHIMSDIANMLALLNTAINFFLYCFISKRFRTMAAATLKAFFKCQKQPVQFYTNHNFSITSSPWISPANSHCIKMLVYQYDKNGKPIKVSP
Procedure: GPR activity was assessed using a calcium detection assay. […] Negative control samples were treated with DMSO. […] Intracellular calcium was measured using Calcium 5.

[3] = Homo sapiens, HEK293, HEK Agonist Activity section of Table 4 (parental HEK counterscreen)
[4] = HEK Agonist Activity section of Table 4 (parental HEK counterscreen)
[5] = values printed in E-notation without unit
[6] = Homo sapiens, HEK293, HEK Agonist Activity, parental non-transfected HEK cells

SMILES	Lipophilic Efficiency (logD) ([1]; HEK Agonist Activity section)	Lipophilic Efficiency (logP) ([1]; HEK Agonist Activity section)	Efficiency Ligand [2]	Hill Slope [2]	Lipophilic Efficiency (logD) [2]	Lipophilic Efficiency (logP) [2]	EC50 ([2]; HEK-GPR139 cells) [nM]	Averaged Max % Response (±St. Dev.) [2] [%]	Lipophilic Efficiency (logD) ([2]; based on logD)	Lipophilic Efficiency (logP) ([2]; based on logP)	Hill Slope ([2]; fitted dose-response curve)	Efficiency Ligand ([2]; ligand efficiency)	EC50 [2, 5] [nM]	Lipophilic Efficiency (logD) ([1]; HEK Agonist Activity)	Lipophilic Efficiency (logP) ([1]; HEK Agonist Activity)	Averaged Max % Response (±St. Dev.) ([1]; HEK Agonist Activity section) [%]	EC50 [1, 3] [nM]	EC50 [1, 4] [nM]	Averaged Max % Response (±St. Dev.) ([1]; HEK Agonist Activity) [%]	EC50 [1, 6] [nM]
COc1ccccc1NC(=O)C(=O)NNC(=O)COc1ccc(Br)cc1C [SR-01000325257]	2.48	2.44	0.29	0.69	3.27	3.22	2300	66.69 ± 11.44								−2.80 ± 2.96	> 14100			
COc1ccccc1NC(=O)NNC(=O)CN1C(=O)COc2ccccc21 [SR-01000336035]	4.40	4.40						100.35 ± 10.43	6.65	6.65	0.39	0.37	79.7			−5.99 ± 6.97	> 14100			
Cc1ccc(C(=O)NNC(=O)CSc2nnc(Cn3cnc4ccccc43)o2)cc1 [SR-01000337370]	3.15	3.14						96.26 ± 15.22	5.62	5.61	0.87	0.34	47.5			23.00 ± 5.22		> 14100		
COc1ccc(-c2nnn(CC(=O)NCCc3c[nH]c4ccccc34)n2)cc1OC [SR-01000339494]								107.79 ± 9.70	5.30	5.30	0.87	0.38		1.97	1.97				13.92 ± 7.54	> 14100
COc1ccccc1C(=O)NNC(=O)C(C)Oc1ccc(Cl)cc1Cl (stereo not drawn) [SR-01000356020]								106.05 ± 9.09	4.30	4.27	0.91	0.43	23	1.52	1.48				1.37 ± 3.30	> 14100
COc1cc(OC)cc(C(=O)NNC(=O)C(C)Oc2ccc(Cl)cc2Cl)c1 (stereo not drawn) [SR-01000358013]								146.26 ± 17.42	4.56	4.52	0.21	0.40		1.68	1.64				22.28 ± 14.14	> 14100
COc1cc(OC)cc(C(=O)NNC(=O)COc2cc(C)c(Cl)c(C)c2)c1 [SR-01000358286]	1.79	1.78	0.31	1.77	2.95	2.95	971	88.73 ± 9.49								17.27 ± 10.49		> 14100		
CCCCCCC(=O)NNC(=O)c1c(O)c2ccccc2n(CCC)c1=O [SR-01000360839]	4.41	2.59	0.28	1.91	4.95	3.13	4100	57.17 ± 6.17								0.18 ± 6.80		> 14100		

The next lines start with results.

Lipophilic Efficiency (logD) ([1]; HEK Agonist Activity section)	Lipophilic Efficiency (logP) ([1]; HEK Agonist Activity section)	Efficiency Ligand [2]	Hill Slope [2]	Lipophilic Efficiency (logD) [2]	Lipophilic Efficiency (logP) [2]	EC50 ([2]; HEK-GPR139 cells) [nM]	Averaged Max % Response (±St. Dev.) [2] [%]	Lipophilic Efficiency (logD) ([2]; based on logD)	Lipophilic Efficiency (logP) ([2]; based on logP)	Hill Slope ([2]; fitted dose-response curve)	Efficiency Ligand ([2]; ligand efficiency)	EC50 [2, 5] [nM]	Lipophilic Efficiency (logD) ([1]; HEK Agonist Activity)	Lipophilic Efficiency (logP) ([1]; HEK Agonist Activity)	SMILES	Averaged Max % Response (±St. Dev.) ([1]; HEK Agonist Activity section) [%]	EC50 [1, 3] [nM]	EC50 [1, 4] [nM]	Averaged Max % Response (±St. Dev.) ([1]; HEK Agonist Activity) [%]	EC50 [1, 6] [nM]
3.09	3.09	0.31	0.68	4.62	4.62	422	86.79 ± 17.90								COc1ccc(CCN2CC3=C(C2=O)C(c2ccc(F)c(F)c2)NC(=O)N3)cc1 (stereo not drawn) [SR-01000335002]	20.28 ± 3.20		> 14100		
2.33	2.33	0.38	1.29	3.37	3.37	1300	86.17 ± 9.84								COc1ccc(CCn2nc(-c3cccnc3)[nH]c2=O)cc1 [SR-01000335115]	12.86 ± 9.78	> 14100			
2.37	2.37	0.26	1.92	3.33	3.33	1600	81.02 ± 6.69								CCCc1nn(CC(=O)NCc2nc3ccccc3n2C)c(=O)c2cc3ccsc3n12 [SR-01000336681]	4.99 ± 7.59		> 14100		
							126.50 ± 10.38	4.97	4.94	0.32	0.47	4.9	1.52	1.48	COc1cccc(C(=O)NNC(=O)C(C)Oc2ccc(Cl)cc2Cl)c1 (stereo not drawn) [SR-01000356497]				2.54 ± 3.30	> 14100
3.76	3.76	0.31	1.75	4.74	4.74		87.67 ± 13.61								Cc1[nH]c(=O)[nH]c(=O)c1/C=N\NC(=O)CCc1ccc(OC(C)C)cc1 [SR-01000357697]	−2.06 ± 7.71	> 14100			
2.25	2.21						103.91 ± 10.30	4.04	3.99	0.77	0.36	231			COc1ccc(C(=O)NNC(=O)COc2ccc(Cl)cc2Cl)cc1OC [SR-01000357814]	7.60 ± 11.41	> 14100			
1.36	1.36	0.30	0.53	2.60	2.60		116.44 ± 14.37								CC(CCC(=O)C12CC3CC(CC(C3)C1)C2)CCc1ccc2ccccc2c1 (stereo not drawn) [SR-01000359546]	3.46 ± 3.80	> 14100			
2.65	2.65	0.37	0.98	4.18	4.18	418	100.90 ± 10.01								COc1cc(OC)cc(C(=O)NNC(=O)CCc2ccccc2)c1 [SR-01000359572]	6.12 ± 4.61	> 14100			
